Experimental data reported in patent publication US5591741A, “Fungicidal spiroheterocyclic derivatives” (American Cyanamid Company, priority 1993, dated 1997).

How the values were obtained:
Leptosphaeria nodorum = test: Activity against wheat leafspot (LN); format: in vivo; conditions: direct therapeutic foliar spray, 600 ppm, 6-8 days
Method in brief: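 Therapeutic foliar spray: compound at 600 ppm applied to single-leaf wheat (cv Norman) 24 h after inoculation with 1.5×10^6 conidia/ml. Disease control scored after 6-8 days at 22° C and 70% humidity as lesions per leaf versus untreated or diluent-sprayed controls.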

Rhizoctonia solani = test: Activity against Rhizoctonia in-vitro (RSI); format: cell-based; conditions: 10 ppm, 10 days, 20° C., mycelial growth
Method in brief: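 Compound at a final 10 ppm (acetone vehicle) in half-strength PDB, inoculated with 5×10^4 fragments/ml of shaken-culture R. solani mycelium. After incubation at 20° C for 10 days, growth scored as a rating versus untreated or diluent-treated controls.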

[1] = tested on: Pseudocercosporella herpotrichoides; test: Activity against wheat eyespot in-vitro (PHI); format: cell-based; conditions: 10 ppm, 10 days, 20° C., mycelial growth
Method in brief: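 Mycelial growth was scored after 10 days at 20 °C against untreated or diluent controls. The broth was half-strength potato dextrose, holding 10 ppm test compound (from acetone) and 5×10^4 fragments/ml of the eyespot fungus.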

Venturia inaequalis = test: Activity against apple scab in-vitro (VII); format: cell-based; conditions: 10 ppm, 10 days, 20° C., mycelial growth
Method in brief: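 V. inaequalis propagules (5×10^4/ml, malt agar-grown) were exposed in half-strength PDB to 10 ppm final test compound delivered in acetone. Growth was scored after incubation for 10 days at 20° C, as a rating relative to untreated or diluent-sprayed controls.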

Botrytis cinerea = test: Direct protectant activity against broad bean grey mould (BCB); format: in vivo; conditions: direct protectant foliar spray, 600 ppm, 4 days
Method in brief: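 Protectant foliar test: lesion coverage assessed 4 days after inoculation and rated relative to untreated or diluent-sprayed plants. Compound applied at 600 ppm to cv The Sutton leaves 24 h before 10^6 conidia/ml suspension; incubation at 22 °C in high humidity.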

Phytophthora infestans = format: in vivo; conditions: tomato, direct protectant foliar spray
[2] = tested on: Erysiphe graminis f.sp. hordei; test: Direct protectant activity against barley powdery mildew (EGP); format: in vivo; conditions: direct protectant foliar spray, 8 days
Method in brief: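 Rating reflects percentage of leaf area with sporulation compared with untreated or diluent-sprayed controls. Protectant spray was applied to single-leaf barley (cv Golden Promise) 24 h before conidia inoculation. Plants were kept at 18 °C and 40% RH throughout, with 8 days of disease development.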

[3] = tested on: Erysiphe graminis f.sp. hordei; test: Activity against barley powdery mildew, direct therapeutic (EGT); format: in vivo; conditions: direct therapeutic foliar spray, 600 ppm, up to 7 days
Method in brief: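 A curative spray at 600 ppm was applied to single-leaf Golden Promise barley inoculated with powdery mildew conidia the previous day. After up to 7 days at 18 °C and 40% humidity, disease control was rated from percent leaf area sporulating relative to untreated or diluent-sprayed controls.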

Alternaria solani = test: Activity against tomato early blight (AS); format: in vivo; conditions: Table VI; tomato seedlings, contact prophylactic foliar spray, 4 days
Method in brief: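 Plants were challenged with A. solani conidia (10^4 spores/ml) 24 h after a protective foliar spray of compound in 50:50 acetone/water plus 0.04% Tween 20. Held humid at 21° C for 4 days, then percent leaf area with lesions was scored as a rating relative to controls.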

Plasmopara viticola = test: Antisporulant activity against vine downy mildew (PVA); format: in vivo; conditions: vine leaves, antisporulant foliar spray, 600 ppm, 750 l/ha
Method in brief: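 Cabernet Sauvignon vines (~8 cm) inoculated on lower leaf surfaces with 5×10^4 zoosporangia/ml, held 24 h at 21° C high humidity then 24 h glasshouse. Infected leaves sprayed underside with 600 ppm compound in 1:1 water/acetone, 0.04% Tween 20, 750 l/ha; 96 h glasshouse, 24 h humidity. Sporulating leaf area rated versus control.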

Pyricularia oryzae = format: in vivo; conditions: rice seedlings, direct therapeutic foliar spray, 600 ppm, 4-5 days

`CCN(C1COC2(CCC(C(C)(C)C)CC2)C1)C1CC2CCC1C2` (centres unmarked) [Compound 129] was tested, and the “disease control rating LN” value (Leptosphaeria nodorum) was 0 (less than 50% disease control), the “disease control rating RSI” value (Rhizoctonia solani) was 0 (less than 50% disease control) and the “disease control rating PHI” value [1] was 0 (less than 50% disease control). The “disease control rating VII” value (Venturia inaequalis) was 1 (about 50-80% disease control), the “disease control rating BCB” value (Botrytis cinerea) was 0 (less than 50% disease control) and the “disease control rating PIP” value (Phytophthora infestans) was 0 (less than 50% disease control). The “disease control rating EGP” value [2] was 2 (greater than 80% disease control), the “disease control rating EGT” value [3] was 2 (greater than 80% disease control) and the “disease control rating AS” value (Alternaria solani) was 0 (less than 50% disease control). For the same molecule, the “disease control rating PVA” value (Plasmopara viticola) was 0 (less than 50% disease control) and the “disease control rating PO” value (Pyricularia oryzae) was 0 (less than 50% disease control).
With `CCN(CC)C1COC2(CCC(C(C)(C)C)CC2)C1` (centres unmarked) [Compound 68] the “disease control rating LN” value (Leptosphaeria nodorum) was 0 (less than 50% disease control), the “disease control rating RSI” value (Rhizoctonia solani) was 0 (less than 50% disease control) and the “disease control rating PHI” value [1] was 0 (less than 50% disease control). The “disease control rating VII” value (Venturia inaequalis) was 1 (about 50-80% disease control), the “disease control rating BCB” value (Botrytis cinerea) was 0 (less than 50% disease control) and the “disease control rating PIP” value (Phytophthora infestans) was 0 (less than 50% disease control). For the same molecule, the “disease control rating EGP” value [2] was 2 (greater than 80% disease control), the “disease control rating EGT” value [3] was 2 (greater than 80% disease control) and the “disease control rating AS” value (Alternaria solani) was 0 (less than 50% disease control). For the same molecule, the “disease control rating PVA” value (Plasmopara viticola) was 0 (less than 50% disease control) and the “disease control rating PO” value (Pyricularia oryzae) was 1 (about 50-80% disease control).
`CC(C)(C1CCCCC1)C1CCC2(CC1)CC(NC1CCCCC1)CO2` (centres unmarked) [Compound 142] was tested, and the “disease control rating LN” value (Leptosphaeria nodorum) was 0 (less than 50% disease control), the “disease control rating RSI” value (Rhizoctonia solani) was 2 (greater than 80% disease control) and the “disease control rating PHI” value [1] was 2 (greater than 80% disease control). The “disease control rating VII” value (Venturia inaequalis) was 2 (greater than 80% disease control), the “disease control rating BCB” value (Botrytis cinerea) was 0 (less than 50% disease control) and the “disease control rating PIP” value (Phytophthora infestans) was 1 (about 50-80% disease control). The “disease control rating EGP” value [2] was 2 (greater than 80% disease control), the “disease control rating EGT” value [3] was 2 (greater than 80% disease control) and the “disease control rating AS” value (Alternaria solani) was 0 (less than 50% disease control). The “disease control rating PVA” value (Plasmopara viticola) was 0 (less than 50% disease control) and the “disease control rating PO” value (Pyricularia oryzae) was 0 (less than 50% disease control).
For `CCCCCN(C1CCCCC1)C1COC2(CCC(C(C)(C)C)CC2)C1` (centres unmarked) [Compound 77], the “disease control rating LN” value (Leptosphaeria nodorum) was 0 (less than 50% disease control), the “disease control rating RSI” value (Rhizoctonia solani) was 0 (less than 50% disease control) and the “disease control rating PHI” value [1] was 0 (less than 50% disease control). For the same molecule, the “disease control rating VII” value (Venturia inaequalis) was 0 (less than 50% disease control), the “disease control rating BCB” value (Botrytis cinerea) was 0 (less than 50% disease control) and the “disease control rating PIP” value (Phytophthora infestans) was 0 (less than 50% disease control). For the same molecule, the “disease control rating EGP” value [2] was 2 (greater than 80% disease control), the “disease control rating EGT” value [3] was 2 (greater than 80% disease control) and the “disease control rating AS” value (Alternaria solani) was 0 (less than 50% disease control). The “disease control rating PVA” value (Plasmopara viticola) was 0 (less than 50% disease control) and the “disease control rating PO” value (Pyricularia oryzae) was 0 (less than 50% disease control).
With `CCCCCCN(C)C1COC2(CCCCC2)C1` (centres unmarked) [Compound 59] the “disease control rating LN” value (Leptosphaeria nodorum) was 0 (less than 50% disease control), the “disease control rating RSI” value (Rhizoctonia solani) was 0 (less than 50% disease control) and the “disease control rating PHI” value [1] was 0 (less than 50% disease control). The “disease control rating VII” value (Venturia inaequalis) was 0 (less than 50% disease control), the “disease control rating BCB” value (Botrytis cinerea) was 0 (less than 50% disease control) and the “disease control rating PIP” value (Phytophthora infestans) was 0 (less than 50% disease control). The “disease control rating EGP” value [2] was 2 (greater than 80% disease control), the “disease control rating EGT” value [3] was 2 (greater than 80% disease control) and the “disease control rating AS” value (Alternaria solani) was 0 (less than 50% disease control). For the same molecule, the “disease control rating PVA” value (Plasmopara viticola) was 0 (less than 50% disease control) and the “disease control rating PO” value (Pyricularia oryzae) was 0 (less than 50% disease control).
For `CCCCc1ccc(CNC2COC3(CCC(C(C)(C)C)CC3)C2)cc1` (centres unmarked) [Compound 26], the “disease control rating LN” value (Leptosphaeria nodorum) was 0 (less than 50% disease control), the “disease control rating RSI” value (Rhizoctonia solani) was 0 (less than 50% disease control) and the “disease control rating PHI” value [1] was 1 (about 50-80% disease control). The “disease control rating VII” value (Venturia inaequalis) was 1 (about 50-80% disease control), the “disease control rating BCB” value (Botrytis cinerea) was 0 (less than 50% disease control) and the “disease control rating PIP” value (Phytophthora infestans) was 0 (less than 50% disease control). The “disease control rating EGP” value [2] was 2 (greater than 80% disease control), the “disease control rating EGT” value [3] was 2 (greater than 80% disease control) and the “disease control rating AS” value (Alternaria solani) was 1 (about 50-80% disease control). The “disease control rating PVA” value (Plasmopara viticola) was 0 (less than 50% disease control) and the “disease control rating PO” value (Pyricularia oryzae) was 0 (less than 50% disease control).
`CC(C)(C)C1CCC2(CC1)CC(Nc1ccccc1)CO2` (centres unmarked) [Compound 22] was tested, and the “disease control rating LN” value (Leptosphaeria nodorum) was 0 (less than 50% disease control), the “disease control rating RSI” value (Rhizoctonia solani) was 0 (less than 50% disease control) and the “disease control rating PHI” value [1] was 0 (less than 50% disease control). For the same molecule, the “disease control rating VII” value (Venturia inaequalis) was 0 (less than 50% disease control), the “disease control rating BCB” value (Botrytis cinerea) was 0 (less than 50% disease control) and the “disease control rating PIP” value (Phytophthora infestans) was 0 (less than 50% disease control). The “disease control rating EGP” value [2] was 1 (about 50-80% disease control), the “disease control rating EGT” value [3] was 1 (about 50-80% disease control) and the “disease control rating AS” value (Alternaria solani) was 0 (less than 50% disease control). The “disease control rating PVA” value (Plasmopara viticola) was 0 (less than 50% disease control) and the “disease control rating PO” value (Pyricularia oryzae) was 0 (less than 50% disease control).
In the case of `CCCCCCCCCCCCCCCCCCNC1COC2(CCC(C(C)(C)C)CC2)C1` (centres unmarked) [Compound 46], the “disease control rating LN” value (Leptosphaeria nodorum) is reported as 0 (less than 50% disease control), the “disease control rating RSI” value (Rhizoctonia solani) is reported as 0 (less than 50% disease control) and the “disease control rating PHI” value [1] is reported as 0 (less than 50% disease control). The “disease control rating VII” value (Venturia inaequalis) was 0 (less than 50% disease control), the “disease control rating BCB” value (Botrytis cinerea) was 0 (less than 50% disease control) and the “disease control rating PIP” value (Phytophthora infestans) was 0 (less than 50% disease control). The “disease control rating EGP” value [2] was 2 (greater than 80% disease control), the “disease control rating EGT” value [3] was 2 (greater than 80% disease control) and the “disease control rating AS” value (Alternaria solani) was 0 (less than 50% disease control). For the same molecule, the “disease control rating PVA” value (Plasmopara viticola) was 0 (less than 50% disease control) and the “disease control rating PO” value (Pyricularia oryzae) was 0 (less than 50% disease control).
In the case of `CC(C)(C)C1CCC2(CC1)CC(NCCC1CCCCC1)CO2` (centres unmarked) [Compound 100], the “disease control rating LN” value (Leptosphaeria nodorum) is reported as 0 (less than 50% disease control), the “disease control rating RSI” value (Rhizoctonia solani) is reported as 1 (about 50-80% disease control) and the “disease control rating PHI” value [1] is reported as 1 (about 50-80% disease control). For the same molecule, the “disease control rating VII” value (Venturia inaequalis) was 2 (greater than 80% disease control), the “disease control rating BCB” value (Botrytis cinerea) was 2 (greater than 80% disease control) and the “disease control rating PIP” value (Phytophthora infestans) was 2 (greater than 80% disease control). The “disease control rating EGP” value [2] was 2 (greater than 80% disease control), the “disease control rating EGT” value [3] was 2 (greater than 80% disease control) and the “disease control rating AS” value (Alternaria solani) was 0 (less than 50% disease control). The “disease control rating PVA” value (Plasmopara viticola) was 0 (less than 50% disease control) and the “disease control rating PO” value (Pyricularia oryzae) was 0 (less than 50% disease control).
For `CC(C)(C)C1CCC2(CC1)CC(N1CCC3CCCCC3C1)CO2` (centres unmarked) [Compound 6], the “disease control rating LN” value (Leptosphaeria nodorum) was 0 (less than 50% disease control), the “disease control rating RSI” value (Rhizoctonia solani) was 1 (about 50-80% disease control) and the “disease control rating PHI” value [1] was 0 (less than 50% disease control). For the same molecule, the “disease control rating VII” value (Venturia inaequalis) was 1 (about 50-80% disease control), the “disease control rating BCB” value (Botrytis cinerea) was 1 (about 50-80% disease control) and the “disease control rating PIP” value (Phytophthora infestans) was 0 (less than 50% disease control). The “disease control rating EGP” value [2] was 2 (greater than 80% disease control), the “disease control rating EGT” value [3] was 2 (greater than 80% disease control) and the “disease control rating AS” value (Alternaria solani) was 0 (less than 50% disease control). For the same molecule, the “disease control rating PVA” value (Plasmopara viticola) was 0 (less than 50% disease control) and the “disease control rating PO” value (Pyricularia oryzae) was 0 (less than 50% disease control).
